System: HES3 NKX2-5:GFP reporter hESC line derived cardiomyocytes
Experiment: qRT-PCR analysis of atrial and ventricular gene expression in day 20 hPSC-derived cardiomyocytes
Type: cell-based, human
Protocol: To determine if retinoic acid signaling can specify an atrial fate in hPSC-derived cardiogenic populations generated with our embryoid-body (EB)-based protocol, all trans retinoic acid (RA) was added to the differentiation cultures at 4 different time points that represent the following developmental stages: mesoderm induction (day 3), cardiovascular specification (day 5), cardiac progenitor development (day 7) and emergence of contracting cardiomyocytes (day 9) (Kattman et al., 2011) (FIG. 1A). The HES3 NKX2-5: GFP reporter hESC line was used for these experiments to allow us to monitor and quantify cardiovascular development and to isolate GFP+ cardiomyocytes. At day 20 of culture, GFP+SIRPA+CD90− cardiomyocytes were isolated from the differentiated populations and analyzed by RTqPCR for expression of genes indicative of atrial and ventricular development. (FIGS. 1B-D and 8B-E).
For cardiac differentiation, we used a modified version of our embryoid body (EB)-based protocol (Kattman et al., 2011). hPSC populations at 80%-90% confluence were dissociated into single cells (TrypLE, ThermoFisher) and re-aggregated to form EBs in StemPro-34 media (ThermoFisher) containing penicillin/streptomycin (1%, ThermoFisher), L-glutamine (2 mM, ThermoFisher), trans-ferrin (150 μg/ml, ROCHE), ascorbic acid (50 μg/ml, Sigma), and monothioglycerol (50 μg/ml, Sigma), ROCK inhibitor Y-27632 (10 μM, TOCRIS) and rhBMP4 (1 ng/ml, R&D) for 18 h on an orbital shaker. At day 1, the EBs were transferred to mesoderm induction media consisting of StemPro-34 with above supplements (-ROCK inhibitor Y-27632) and rhBMP4, rhActivinA (R&D) and rhbFGF (5 ng/ml, R&D) at the indicated concentrations. At day 3, the EBs were harvested, washed with IMDM and transferred to cardiac mesoderm specification media consisting of StemPro-34, the Wnt inhibitor IWP2 (1 μM, TOCRIS) and rhVEGF (10 ng/mL, R&D). At day 5, the EBs were transferred to Stem Pro-34 with rhVEGF (5 ng/ml) for another 7 days and then to Stem Pro-34 media without additional cytokines for further 8 days. At day 20, HES3-NKX2-5gfp/w-derived cardiomyocytes were analyzed and isolated based on the expression of NKX2-5:GFP and SIRPa and a lack of CD90. Cardiomyocytes generated from non-transgenic hPSC lines were analyzed and isolated as SIRPa+CD90− populations. Media was changed every 3 days. Cultures were incubated in a low oxygen environment (5% CO2, 5% O2, 90% N2) for first 12 days and a normoxic environment (5% CO2) for the following 8 days in total of 20 days. The EBs were cultured in ultra-low attachment 6-well dishes (Corning) throughout the differentiation for maintaining suspension cultures.
Total RNA from hPSC-derived populations was isolated using RNAqueous-micro Kit including RNase-free DNase treatment (Ambion). RNA from dissected ventricular and atrial tissue of human fetal hearts was isolated using the TRIzol method (ThermoFisher) and treated with DNase (Ambion). Between 100 ng and […] of isolated RNA was reverse transcribed into cDNA using oligo (dT) primers and random hexamers and Superscript III Reverse Transcriptase (ThermoFisher). QRT-PCR was performed on an EP Real-Plex MasterCycler (Eppendorf) using QuantiFast SYBR Green PCR kit (QIAGEN). All experiments were prepared in duplicates and included a 10-fold dilution series of sonicated human genomic DNA standards ranging from 25 ng/ml to 2.5 μg/ml for evaluating the efficiency of PCR reaction and the copy number of each gene relative to the house keeping gene TBP. […]

[1] = RA added at days 3 and 5, day 20
[2] = day 3 RA-treated mesoderm versus non-treated

CC1=C(/C=C/C(C)=C/C=C/C(C)=C/C(=O)O)C(C)(C)CCC1 [RA, all trans retinoic acid]
expression of atrial ion channel gene KCNJ3 [1]: upregulation
expression of ventricular-specific gene MYL2 [1]: significant reduction
expression of pan-cardiomyocyte marker CTNT (RA added at different time points, 10B/6A induced, day 20): None of the RA treatments significantly altered
expression of atrial markers NR2F2, TBX5, NPPA, MYL7, CACNA1D, KCNA5, GJA5 [2]: reverse pattern
expression of ventricular markers IRX4 and MYH7 [2]: lower levels

— patent US20190336537A1, “GENERATING ATRIAL AND VENTRICULAR CARDIOMYOCYTE LINEAGES FROM HUMAN PLURIPOTENT STEM CELLS” (UNIVERSITY HEALTH NETWORK, priority 2016, published 2019)
